The source of these data is article PMC6364417, “Kinase inhibitor library screening identifies synergistic drug combinations effective in sensitive and resistant melanoma cells” (Journal of Experimental & Clinical Cancer Research : CR, 2019).

Molecules are shown by their SMILES. Where two headings read alike, the source gives them in different places.

In one data set the test system is A375 cells. In words: Synergy determination with the Chou-Talalay method (CompuSyn), cell viability 72 h. The class given is cell-based, human. To be noted: 72 h cell viability, Chou-Talalay / Synergyfinder.
In data set [1] the test system is A375-XP cells (Vemurafenib-resistant). In words: Dose-response curves and IC50, PrestoBlue cell viability, 72 h. Type of data set: cell-based, human. To be noted: n.e. = did not suppress growth below 50% in the tested concentration range; for IC50: read-out: Half-maximal inhibitory concentration value (IC50), Mean.
The subject of data set [2] is A375 cells (parental). Described as above. Type of data set: cell-based, human. To be noted: read-out: Half-maximal inhibitory concentration value (IC50), Mean.
Another data set relates to P-Akt levels. In words: Western blot, phospho-Akt. The class given is cell-based, human. To be noted: A375 cells, 3 h treatment. On the procedure:
(§1) Cells were seeded at a density of 10^5 cells/well in 24-well plates (Greiner). 24 h post seeding, cells were treated with inhibitors at indicated amounts for 3 h and/or 24 h. Western blot analysis was performed as described before. The following primary antibodies were used: anti-phospho-CHK1 (Ser317) (Cell Signalling Technology, 1:1000), anti-CHK1 (Cell Signalling Technology, 1:1000), anti-phospho-cdc2 (Tyr15) (Cell Signalling Technology, 1:1000), anti-cdc2 (Cell Signalling Technology, 1:1000), anti-PARP (Cell Signalling Technology, 1:1000), anti-cleaved-PARP (Cell Signalling Technology, 1:1000), anti-phospho-Erk ([…]) (Cell Signalling Technology, 1:2000), anti-Erk1/2 (Santa Cruz, Erk1 = 1:1000, Erk2 = 1:2000), anti-phospho-Akt (Ser473) (Cell Signalling Technology, 1:1500), anti-Akt1/2 (Santa Cruz, 1:1000), anti-Vinculin (Abcam, 1:1000) and anti-Tubulin (Santa Cruz, 1:5000). HRP-labeled secondary antibodies were purchased from Cell Signaling Technology (Boston, MA).
(§2) Supplementary file 13046_2019_1038_MOESM6_ESM.pdf: Additional file 6: Figure S4. Western blot analysis for selected drug treatments and apoptosis assays in healthy and melanoma cells. […] Cells were treated for 3 h with indicated concentrations of inhibitors. […] P-cdc2 (CDK1), cdc2 (CDK1), p-Chk1 and Chk1 were detected after 3 h drug treatment, while PARP cleavage was detected after 24 h treatment. […]
On the technique in general: A western blot detects proteins with antibodies after separation by electrophoresis.

In data set [3] the test system is A375-GP cells (Dabrafenib-resistant). In words: Dose-response curves and IC50, PrestoBlue cell viability, 72 h. The class given is cell-based, human. To be noted: n.e. = did not suppress growth below 50% in the tested concentration range; for IC50: read-out: Half-maximal inhibitory concentration value (IC50), Mean.
For data set [4], the system named is IGR37-XP cells (Vemurafenib-resistant). The description is as above. Particulars: Homo sapiens, 72 h, read-out: Half-maximal inhibitory concentration (IC50).
Procedure: (§4) All inhibitors used in this study were purchased from Selleck Chemicals (Houston, USA). They were dissolved in DMSO to a stock concentration of 10 mM according to the manufacturer’s instructions and stored at − 80 °C. […] Cell viability was measured with the PrestoBlue Cell Viability Reagent (ThermoFisher Scientific) on a CLARIOstar Monochromator microplate reader (BMG Labtech). Using the GraphPad Prism v5.04 software, the half-maximal inhibitor concentration values (IC50) were determined from the curve using the nonlinear log (inhibitor) vs response-variable slope (four parameters) equation. […] The IC50’s were determined for 3 biological replicates and are listed with their standard deviations.
(§5) Values represent the mean of at least three biological replicates; one representative curve of at least 3 biological replicates is depicted. _XP: cells resistant to Vemurafenib (red), _GP: cells resistant to Dabrafenib (green).
Data set [5] has as its system IGR37-GP cells (Dabrafenib-resistant). Described as above. Particulars: Homo sapiens, 72 h, read-out: Half-maximal inhibitory concentration (IC50).
Procedure: as §4, §5
For a further data set, the system named is PARP cleavage. In words: Western blot, PARP cleavage in A375 cells. Particulars: A375, A375-XP, A375-GP; 24 h treatment. Type of data set: cell-based, human.
In data set [6] the test system is 501Mel cells (parental). In words: Dose-response curves and IC50, PrestoBlue cell viability, 72 h. Particulars: Homo sapiens, 72 h, read-out: Half-maximal inhibitory concentration (IC50).
Procedure: as §4, §5
The test system of data set [7] is A375 cells (parental sensitive) tumors. In words: In vivo assay, subcutaneous melanoma tumors in NSG mice. More on the design: species or system NOD scid gamma (NSG) mice. Particulars: NSG mice with A375 or A375-XP tumors, 8 days of daily treatment. On the procedure: NOD scid gamma (NSG) mice were bred in-house and experiments were performed according to all applicable laws and regulations, after receiving approval by the institution’s animal experimentation ethics committee and the veterinarian service of the Ministry of Agriculture (Permit Number: 18-MDM-01). Single parental sensitive A375 cells (0.5 × 10^6 cells) and Vemurafenib-resistant A375-XP cells (2 × 10^6 cells) were resuspended in 100 μL of 1:1 mixed serum-free medium and matrigel (BD Biosciences) and injected subcutaneously in 6–8 week-old mice. […] Control mice received the respective vehicle by oral gavage and intraperitoneal injection. […] Statistical analysis was done using a two-way ANOVA followed by post-hoc Tukey’s multiple comparison tests.

Data set [8] concerns 501Mel-XP cells (Vemurafenib-resistant). In words: Dose-response curves and IC50, PrestoBlue cell viability, 72 h. Particulars: Homo sapiens, 72 h, read-out: Half-maximal inhibitory concentration (IC50).
Procedure: as §4, §5
Data set [9] deals with 501Mel-GP cells (Dabrafenib-resistant). The description is as above. Particulars: Homo sapiens, 72 h, read-out: Half-maximal inhibitory concentration (IC50).
Procedure: as §4
The test system of data set [10] is NHEM (normal human epidermal melanocytes). In words: Dose-response curves and IC50 in non-cancer cells, cell viability, 72 h. To be noted: for effect on healthy cells, cell viability (in words): melanocytes (NHEM). As to the method:
(§3) The IC50 values (nM) were calculated as indicated in Methods.

Data set [11] relates to NHDF (normal human dermal fibroblasts). The data set is described as above. To be noted: for effect on healthy cells, cell viability (in words): fibroblasts (NHDF). As to the method: as §3
The subject of data set [12] is IGR37 cells (parental). In words: Dose-response curves and IC50, PrestoBlue cell viability, 72 h. To be noted: Homo sapiens, IGR-37, 72 h, read-out: Half-maximal inhibitory concentration (IC50).
Procedure: as §4, §5
The test system of data set [13] is A375-GP cells (Dabrafenib-resistant). In words: Kinase inhibitor library screening, PrestoBlue cell viability, 1 or 10 μM, 72 h. Particulars: A375 GP, in %.
The test system of data set [14] is IGR37 cells (parental). Described as above. To be noted: IGR37 Parental, in %.
Data set [15] concerns A375-XP cells (Vemurafenib-resistant). Described as above. To be noted: A375 XP, in %.
The subject of data set [16] is 501Mel-GP cells (Dabrafenib-resistant). The description is as above. Particulars: 501Mel GP, in %.
For data set [17], the system named is IGR37-XP cells (Vemurafenib-resistant). The data set is described as above. Particulars: IGR37 XP, in %.
For data set [18], the system named is 501Mel cells (parental). Described as above. To be noted: 501Mel Parental, in %. An outline of the steps: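 Treatment: 72 h with inhibitor. Detection: PrestoBlue, plate reader. Output: viability as % untreated control. Replicates: duplicate minimum. Lines: parental plus Vemurafenib- or Dabrafenib-resistant derivatives.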
The test system of data set [19] is IGR37-GP cells (Dabrafenib-resistant). The data set is described as above. Particulars: IGR37 GP, in %.
The subject of data set [20] is A375 cells (parental). The data set is described as above. Particulars: A375 Parental, in %.
The subject of data set [21] is 501Mel-XP cells (Vemurafenib-resistant). Described as above. Particulars: 501Mel XP, in %.
The test system of data set [22] is Tyr15 phosphorylation of CDK1 (P-cdc2). In words: Western blot, phospho-cdc2 (Tyr15). The class given is cell-based, human. To be noted: parental and resistant A375 cells, 3 h treatment.
Procedure: (§6) Cells were seeded at a density of 10^5 cells/well in 24-well plates (Greiner). 24 h post seeding, cells were treated with inhibitors at indicated amounts for 3 h and/or 24 h. […] The following primary antibodies were used: anti-phospho-CHK1 (Ser317) (Cell Signalling Technology, 1:1000), anti-CHK1 (Cell Signalling Technology, 1:1000), anti-phospho-cdc2 (Tyr15) (Cell Signalling Technology, 1:1000), anti-cdc2 (Cell Signalling Technology, 1:1000), anti-PARP (Cell Signalling Technology, 1:1000), anti-cleaved-PARP (Cell Signalling Technology, 1:1000), anti-phospho-Erk (Tyr202/Tyr204) (Cell Signalling Technology, 1:2000), anti-Erk1/2 (Santa Cruz, Erk1 = 1:1000, Erk2 = 1:2000), anti-phospho-Akt (Ser473) (Cell Signalling Technology, 1:1500), anti-Akt1/2 (Santa Cruz, 1:1000), anti-Vinculin (Abcam, 1:1000) and anti-Tubulin (Santa Cruz, 1:5000). HRP-labeled secondary antibodies were purchased from Cell Signaling Technology (Boston, MA).
In another data set the test system is Erk phosphorylation. In words: Western blot, phospho-Erk. The class given is cell-based, human. Particulars: A375 cells, 3 h treatment. On the procedure:
as §1, §2

[23] abbreviates: Homo sapiens, A-375, n.e. = did not suppress growth below 50% in the tested concentration range.

Procedure for PARP cleavage: as §6

For the molecule `CNC(=O)c1ccccc1Nc1nc(Nc2ccc(N3CCOCC3)cc2OC)ncc1Cl` [TAE226], in the data set on A375 cells, the “synergistic effects with the BRAF inhibitors Vemurafenib and/or Dabrafenib (in words)” value was “Vemurafenib showed synergism”. The figures for the IC50 (in data set [1]; in the data set on A375 cells (parental) [2] (n.e. = did not suppress growth below 50% in the tested concentration range); in data set [3]) were 176 nM, 489 nM and 301 nM, respectively. In addition, in the data set on P-Akt levels, the “P-Akt levels (in words)” value was “blocking P-Akt levels”.
For `NC(=O)Nc1cc(-c2cccc(F)c2)sc1C(=O)N[C@H]1CCCNC1` [AZD7762], the IC50 in data set [4] amounted to 58 nM; in [5], 70 nM; in the data set on 501Mel cells (parental) [6], 306 nM; in data set [1] (Homo sapiens), 366 nM; in data set [8] it was 188 nM; in the data set on A375 cells (parental) [2] (setting [23]), 311 nM. Besides, the IC50 in data set [9] turned out to be 426 nM; in data set [10] (Homo sapiens, Melanocyte, read-out: Half-maximal inhibitory concentration (IC50), NHEM Mean), 358 nM; in [11] (Homo sapiens, NHDF, read-out: Half-maximal inhibitory concentration (IC50), NHDF Mean), 532 nM; in [3] (Homo sapiens) it was 299 nM; in the data set on IGR37 cells (parental) [12] it was 65 nM. Moreover, the “Cleavage of PARP (in words)” value in the data set on PARP cleavage is reported as “induced”. Further, the “synergistic effects with the BRAF inhibitors Vemurafenib and/or Dabrafenib (in words)” value in the data set with A375 cells is “clear synergistic effects”. Moreover, the “body weight and side effects during treatment (in words)” value in [7] is given as “did not lose weight”. Moreover, the “effect on healthy cells, cell viability (in words)” value (“effect on healthy cells” for short) in data set [10] and in data set [11] was “very modest effects” each time.
For the molecule `C=CCn1c(=O)c2cnc(Nc3ccc(N4CCN(C)CC4)cc3)nc2n1-c1cccc(C(C)(C)O)n1` [MK-1775, reference compound], the IC50 in data set [4] was found to be 201 nM; in data set [5], 289 nM; in the data set on 501Mel cells (parental) [6] it was 257 nM; in [1] (Homo sapiens) it was 809 nM; in [8] it was 220 nM; with A375 cells (parental) [2] (setting [23]) it was 388 nM. Further, the IC50 in data set [9] was determined as 289 nM; in [3] (Homo sapiens) it was 325 nM; in the data set with IGR37 cells (parental) [12], 286 nM. Besides, in the data set on PARP cleavage, the “Cleavage of PARP (in words)” value is given as “induced”. Besides, the “cell viability (kinase inhibitor library screening)” value in [13] (1μΜ) came to 17.5; in data set [13] (10μΜ), 1.8; in the data set with IGR37 cells (parental) [14] (1μΜ) it was 20.4; in the data set with IGR37 cells (parental) [14] (10μΜ), 9.8; in data set [15] (1μΜ), 43.8; in data set [15] (10μΜ), 8.7. Moreover, the “cell viability (kinase inhibitor library screening)” value came out at 27.8 in data set [16] (1μΜ); 24.0 in data set [16] (10μΜ); 45.0 in data set [17] (1μΜ); 36.2 in data set [17] (10μΜ); 35.1 in the data set on 501Mel cells (parental) [18] (1μΜ); 24.2 in the data set on 501Mel cells (parental) [18] (10μΜ). The “cell viability (kinase inhibitor library screening)” value is recorded as 46.6 in data set [19] (1μΜ); 41.7 in data set [19] (10μΜ); 25.2 in the data set on A375 cells (parental) [20] (1μΜ); 4.9 with A375 cells (parental) [20] (10μΜ); 11.1 in [21] (1μΜ); 6.5 in data set [21] (10μΜ). For the same molecule, in the data set with A375 cells, the “synergistic effects with the BRAF inhibitors Vemurafenib and/or Dabrafenib (in words)” value is on record as “clear synergistic effects”. Besides, the “inhibitory CDK1 (cdc2) phosphorylation level (in words)” value in data set [22] is recorded as “reduced levels of inhibitory CDK1 (cdc2) phosphorylation”. Moreover, the “body weight and side effects during treatment (in words)” value in data set [7] is “did not lose weight”. The “effect on healthy cells” value in data set [10] and in data set [11] was “very modest effects” throughout.
Regarding `CCCS(=O)(=O)Nc1ccc(F)c(C(=O)c2c[nH]c3ncc(-c4ccc(Cl)cc4)cc23)c1F` [Vemurafenib], the “Half-maximal inhibitory concentration value (IC50), Mean” value in data set [1] and in [3] was “n.e” each time. Also, the “Erk phosphorylation (in words)” value with Erk phosphorylation is reported as “inhibition of Erk phosphorylation by Vemurafenib was confirmed”. For the same molecule, the IC50 in the data set with A375 cells (parental) [2] (setting [23]) was found to be 135 nM. Besides, the “effect on healthy cells” value in [10] and in data set [11] was “did not have any effect” throughout.
